The values below come from patent publication US20070128217A1 (priority 2003, published 2007).

For assay [1], the system named is antibodies in sera from SARS patients (sera 1a, 1b, 2, 6, 37, 62, London, SARS-yellow, SARS-green). In kind it is binding, human. More on the design: Binding of serum 6 to linear peptides of protein X1 of SARS-CoV Urbani / Binding of serum 37 to linear peptides of protein X1 of SARS-CoV Urbani / Binding of serum 6 to looped/cyclic peptide (PEPSCAN-ELISA) / Binding of serum 37 to looped/cyclic peptide (PEPSCAN-ELISA) / Binding of serum 37 to looped/cyclic peptides of protein X1 of SARS-CoV Urbani / Binding of serum 6 to linear peptides of protein X2 / Binding of serum 37 to linear peptides of protein X2 / Binding of serum 37 to looped/cyclic peptides of protein X2 of SARS-CoV Urbani / Binding of serum 6 to linear peptides of protein M of SARS-CoV Urbani / Binding of serum 37 to linear peptides of protein M of SARS-CoV Urbani / Binding of serum 6 to looped/cyclic peptides of protein M of SARS-CoV Urbani / Binding of serum 37 to looped/cyclic peptides of protein M of SARS-CoV Urbani / Binding of serum 6 to linear peptides of protein X3 of SARS-CoV Urbani / Binding of serum 37 to linear peptides of protein X3 of SARS-CoV Urbani / Binding of serum 37 to looped/cyclic peptides of protein X3 of SARS-CoV Urbani / Binding of serum 6 to linear peptides of protein X4 of SARS-CoV Urbani / Binding of serum 37 to linear peptides of protein X4 of SARS-CoV Urbani / Binding of serum 37 to looped/cyclic peptides of protein X4 of SARS-CoV Urbani / Binding of serum 6 to linear peptides of protein X5 of SARS-CoV Urbani / Binding of serum 37 to linear peptides of protein X5 of SARS-CoV Urbani / Binding of serum 37 to looped/cyclic peptides of protein X5 of SARS-CoV Urbani / Binding of serum 6 to linear peptides of protein N of SARS-CoV Urbani / Binding of serum 37 to linear peptides of protein N of SARS-CoV Urbani / Binding of serum 6 to linear peptide (PEPSCAN-ELISA) / Binding of serum 1a to looped/cyclic peptides of protein N of SARS-CoV Urbani / Binding of serum 1b to looped/cyclic peptides of protein N of SARS-CoV Urbani / Binding of serum 2 to looped/cyclic peptides of protein N of SARS-CoV Urbani / Binding of serum 6 to looped/cyclic peptides of protein N of SARS-CoV Urbani / Binding of serum 37 to looped/cyclic peptides of protein N of SARS-CoV Urbani / Binding of serum 62 to looped/cyclic peptides of protein N of SARS-CoV Urbani / Binding of serum London to looped/cyclic peptides of protein N of SARS-CoV Urbani / Binding of serum SARS-green to looped/cyclic peptides of protein N of SARS-CoV Urbani: unit not given here.

The test system of assay [2] is control sera (pooled serum of ten healthy LUMC hospital workers; commercial negative donor pooled serum from the Dutch bloodbank). In kind it is binding, human. More on the design: Binding of Control serum LUMC to linear peptides / Binding of Control serum Blood-bank to linear peptides / Binding of Control serum LUMC to looped peptides / Binding of Control Serum Blood-Bank to Looped peptides / Binding of Control serum LUMC to linear peptides of the protein M of SARS-CoV Urbani / Binding of Control serum Blood-bank to linear peptides of the protein M of SARS-CoV Urbani / Binding of Control serum LUMC to looped peptides of the protein M of SARS-CoV Urbani / Binding of Control Serum Blood-Bank to Looped peptides of the protein M of SARS-CoV Urbani: unit not given here.

The test system of assay [3] is rabbit serum obtained by immunizing a rabbit with the SARS-CoV strain Frankfurt 1. In kind it is binding. More on the design: Binding of a rabbit serum to linear peptides / Binding of a rabbit serum to looped peptides / Rabbit serum linear peptides / Rabbit serum looped peptides / Binding of a rabbit serum to linear peptides of protein N of SARS-CoV Urbani (Rabbit serum linear peptides) / Binding of a rabbit serum to looped/cyclic peptides of protein N of SARS-CoV Urbani (Rabbit serum looped peptides): unit not given here.

For CLKILVRYNTRGNTY, in assay [1], the “Binding of serum 1a to linear peptides of protein X5 of SARS-CoV Urbani” value is on record as 0.7, the “Binding of serum 1a to looped/cyclic peptides of protein X5 of SARS-CoV Urbani” value stood at 0.5, the “Binding of serum 1b to linear peptides of protein X5 of SARS-CoV Urbani” value was found to be 0.7 and the “Binding of serum 1b to looped/cyclic peptides of protein X5 of SARS-CoV Urbani” value was 0.2. Also, in assay [1], the “Binding of serum 2 to linear peptides of protein X5 of SARS-CoV Urbani” value is reported as 0.8, the “Binding of serum 2 to looped/cyclic peptides of protein X5 of SARS-CoV Urbani” value came out at 0.5, the “Binding of serum 6 to linear peptides of protein X5 of SARS-CoV Urbani” value is 0.8 and the “Binding of serum 6 to looped/cyclic peptides of protein X5 of SARS-CoV Urbani” value turned out to be 0.4. Also, in assay [1], the “Binding of serum 37 to linear peptides of protein X5 of SARS-CoV Urbani” value is 0.7, the “Binding of serum 37 to looped/cyclic peptides of protein X5 of SARS-CoV Urbani” value is recorded as 0.5, the “Binding of serum 62 to linear peptides of protein X5 of SARS-CoV Urbani” value was found to be 0.8 and the “Binding of serum 62 to looped/cyclic peptides of protein X5 of SARS-CoV Urbani” value was 0.7. Moreover, in assay [1], the “Binding of serum London to linear peptides of protein X5 of SARS-CoV Urbani” value was found to be 0.7, the “Binding of serum London to looped/cyclic peptides of protein X5 of SARS-CoV Urbani” value is 0.2, the “Binding of serum SARS-green to linear peptides of protein X5 of SARS-CoV Urbani” value turned out to be 0.7 and the “Binding of serum SARS-green to looped/cyclic peptides of protein X5 of SARS-CoV Urbani” value is 0.4. Further, in assay [1], the “Binding of serum SARS-yellow to linear peptides of protein X5 of SARS-CoV Urbani” value came out at 0.3 and the “Binding of serum SARS-yellow to looped/cyclic peptides of protein X5 of SARS-CoV Urbani” value stood at 0.8. Moreover, in assay [2], the “Binding of Control Serum Blood-Bank to Looped peptides” value is given as 0.4, the “Binding of Control serum Blood-bank to linear peptides” value was determined as 0.8, the “Binding of Control serum LUMC to linear peptides” value came out at 0.4 and the “Binding of Control serum LUMC to looped peptides” value came out at 0.6. For the same sequence, in assay [3], the “Rabbit serum linear peptides” value is 1.1 and the “Rabbit serum looped peptides” value turned out to be 0.2.

As for CNLLLLFVTIYSHLL, in assay [1], the “Binding of serum 1a to linear peptides of protein X1 of SARS-CoV Urbani” value is 0.7, the “Binding of serum 1a to looped/cyclic peptide (PEPSCAN-ELISA)” value came to 0.5, the “Binding of serum 1b to linear peptides of protein X1 of SARS-CoV Urbani” value is on record as 0.5 and the “Binding of serum 1b to looped/cyclic peptide (PEPSCAN-ELISA)” value came to 0.4. Further, in assay [1], the “Binding of serum 2 to linear peptides of protein X1 of SARS-CoV Urbani” value is 0.5, the “Binding of serum 2 to looped/cyclic peptide (PEPSCAN-ELISA)” value amounted to 0.4, the “Binding of serum 6 to linear peptides of protein X1 of SARS-CoV Urbani” value is reported as 0.4 and the “Binding of serum 6 to looped/cyclic peptide (PEPSCAN-ELISA)” value is listed as 0.3. Also, in assay [1], the “Binding of serum 37 to linear peptides of protein X1 of SARS-CoV Urbani” value amounted to 0.6, the “Binding of serum 37 to looped/cyclic peptide (PEPSCAN-ELISA)” value is 0.5, the “Binding of serum 62 to linear peptides of protein X1 of SARS-CoV Urbani” value was determined as 0.4 and the “Binding of serum 62 to looped/cyclic peptide (PEPSCAN-ELISA)” value is recorded as 0.5. For the same sequence, in assay [1], the “Binding of serum London to linear peptides of protein X1 of SARS-CoV Urbani” value is 0.2, the “Binding of serum London to looped/cyclic peptide (PEPSCAN-ELISA)” value was 0.2, the “Binding of serum SARS-green to linear peptides of protein X1 of SARS-CoV Urbani” value was determined as 0.1 and the “Binding of serum SARS-green to looped/cyclic peptide (PEPSCAN-ELISA)” value came to 0.2. In assay [1], the “Binding of serum SARS-yellow to linear peptides of protein X1 of SARS-CoV Urbani” value is recorded as 0.4 and the “Binding of serum SARS-yellow to looped/cyclic peptide (PEPSCAN-ELISA)” value was found to be 0.4. Besides, in assay [2], the “Binding of Control Serum Blood-Bank to Looped peptides” value is 0.5, the “Binding of Control serum Blood-bank to linear peptides” value is 0.4, the “Binding of Control serum LUMC to linear peptides” value was 0.4 and the “Binding of Control serum LUMC to looped peptides” value came to 0.5. Moreover, in assay [3], the “Binding of a rabbit serum to linear peptides” value was 0.1 and the “Binding of a rabbit serum to looped peptides” value was determined as 0.6.

For the sequence CTPNVTINCQDPAGG, in assay [1], the “Binding of serum 1a to linear peptides of protein X5 of SARS-CoV Urbani” value was determined as 1.0, the “Binding of serum 1a to looped/cyclic peptides of protein X5 of SARS-CoV Urbani” value was 0.6, the “Binding of serum 1b to linear peptides of protein X5 of SARS-CoV Urbani” value is recorded as 0.8 and the “Binding of serum 1b to looped/cyclic peptides of protein X5 of SARS-CoV Urbani” value came out at 0.8. Moreover, in assay [1], the “Binding of serum 2 to linear peptides of protein X5 of SARS-CoV Urbani” value came to 0.6, the “Binding of serum 2 to looped/cyclic peptides of protein X5 of SARS-CoV Urbani” value is 0.3, the “Binding of serum 6 to linear peptides of protein X5 of SARS-CoV Urbani” value is listed as 0.6 and the “Binding of serum 6 to looped/cyclic peptides of protein X5 of SARS-CoV Urbani” value is given as 0.3. For the same sequence, in assay [1], the “Binding of serum 37 to linear peptides of protein X5 of SARS-CoV Urbani” value was 0.7, the “Binding of serum 37 to looped/cyclic peptides of protein X5 of SARS-CoV Urbani” value amounted to 0.4, the “Binding of serum 62 to linear peptides of protein X5 of SARS-CoV Urbani” value turned out to be 0.7 and the “Binding of serum 62 to looped/cyclic peptides of protein X5 of SARS-CoV Urbani” value is reported as 0.3. Moreover, in assay [1], the “Binding of serum London to linear peptides of protein X5 of SARS-CoV Urbani” value was found to be 0.8, the “Binding of serum London to looped/cyclic peptides of protein X5 of SARS-CoV Urbani” value came to 0.2, the “Binding of serum SARS-green to linear peptides of protein X5 of SARS-CoV Urbani” value was 0.5 and the “Binding of serum SARS-green to looped/cyclic peptides of protein X5 of SARS-CoV Urbani” value is recorded as 0.4. Besides, in assay [1], the “Binding of serum SARS-yellow to linear peptides of protein X5 of SARS-CoV Urbani” value was found to be 0.0 and the “Binding of serum SARS-yellow to looped/cyclic peptides of protein X5 of SARS-CoV Urbani” value came to 0.4. Moreover, in assay [2], the “Binding of Control Serum Blood-Bank to Looped peptides” value is reported as 0.4, the “Binding of Control serum Blood-bank to linear peptides” value is 0.7, the “Binding of Control serum LUMC to linear peptides” value was 0.3 and the “Binding of Control serum LUMC to looped peptides” value is listed as 0.4. Moreover, in assay [3], the “Rabbit serum linear peptides” value amounted to 0.4 and the “Rabbit serum looped peptides” value is reported as 0.0.

In the case of CTSTHFAFACADGTR, in assay [1], the “Binding of serum 1a to linear peptides of protein X4 of SARS-CoV Urbani” value was 0.7, the “Binding of serum 1a to looped/cyclic peptides of protein X4 of SARS-CoV Urbani” value is recorded as 0.7, the “Binding of serum 1b to linear peptides of protein X4 of SARS-CoV Urbani” value was 0.7 and the “Binding of serum 1b to looped/cyclic peptides of protein X4 of SARS-CoV Urbani” value is 0.4. Moreover, in assay [1], the “Binding of serum 2 to linear peptides of protein X4 of SARS-CoV Urbani” value came out at 0.5, the “Binding of serum 2 to looped/cyclic peptides of protein X4 of SARS-CoV Urbani” value is given as 0.6, the “Binding of serum 6 to linear peptides of protein X4 of SARS-CoV Urbani” value came out at 0.6 and the “Binding of serum 6 to looped/cyclic peptides of protein X4 of SARS-CoV Urbani” value came out at 0.6. Moreover, in assay [1], the “Binding of serum 37 to linear peptides of protein X4 of SARS-CoV Urbani” value amounted to 0.7, the “Binding of serum 37 to looped/cyclic peptides of protein X4 of SARS-CoV Urbani” value amounted to 0.7, the “Binding of serum 62 to linear peptides of protein X4 of SARS-CoV Urbani” value turned out to be 0.8 and the “Binding of serum 62 to looped/cyclic peptides of protein X4 of SARS-CoV Urbani” value amounted to 0.7. In addition, in assay [1], the “Binding of serum London to linear peptides of protein X4 of SARS-CoV Urbani” value was 0.7, the “Binding of serum London to looped/cyclic peptides of protein X4 of SARS-CoV Urbani” value was determined as 0.3, the “Binding of serum SARS-green to linear peptides of protein X4 of SARS-CoV Urbani” value is 0.6 and the “Binding of serum SARS-green to looped/cyclic peptides of protein X4 of SARS-CoV Urbani” value stood at 0.4. Further, in assay [1], the “Binding of serum SARS-yellow to linear peptides of protein X4 of SARS-CoV Urbani” value is on record as 0.4 and the “Binding of serum SARS-yellow to looped/cyclic peptides of protein X4 of SARS-CoV Urbani” value is reported as 1.0. In addition, in assay [2], the “Binding of Control Serum Blood-Bank to Looped peptides” value was found to be 0.8, the “Binding of Control serum Blood-bank to linear peptides” value was determined as 0.7, the “Binding of Control serum LUMC to linear peptides” value is given as 0.8 and the “Binding of Control serum LUMC to looped peptides” value is on record as 0.7. Besides, in assay [3], the “Rabbit serum linear peptides” value turned out to be 0.4 and the “Rabbit serum looped peptides” value came out at 0.6.
